pIC50: −log10 of the molar value. Counter-ions that a name gives are not always drawn.

Sequence of human CXCR3-A receptor (P49682 whole entry): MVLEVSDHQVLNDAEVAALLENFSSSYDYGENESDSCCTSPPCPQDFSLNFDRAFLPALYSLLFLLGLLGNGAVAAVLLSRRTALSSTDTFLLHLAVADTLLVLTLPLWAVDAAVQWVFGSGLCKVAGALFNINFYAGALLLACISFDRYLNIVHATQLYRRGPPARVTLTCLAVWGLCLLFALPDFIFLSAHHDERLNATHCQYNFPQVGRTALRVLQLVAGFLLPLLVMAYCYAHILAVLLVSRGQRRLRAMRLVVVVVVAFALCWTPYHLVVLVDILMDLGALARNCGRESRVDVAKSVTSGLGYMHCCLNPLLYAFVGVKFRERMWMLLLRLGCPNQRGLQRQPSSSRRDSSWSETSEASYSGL

The assay has as its target human CXCR3-A receptor (Homo sapiens (Human), UniProt P49682). Kind of assay: 125I-CXCL10 competition radioligand binding assay.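 Further: One-hour incubation of membranes with tracer, bound radioligand separated by glass fibre filtration, IC50 derived from four-parameter nonlinear fit of competition curves.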 The following applies: displacement of 125I-CXCL10 from membranes of CHO cells expressing human recombinant CXCR3-A.
Regarding `COc1cc(CN(CC2CCCCC2)C(CC(=O)O)c2ccc(C(F)(F)F)cc2)ccc1OCCN1C(=O)CCC1=O` (centres unmarked) [Example 181, 3-(Cyclohexylmethyl-{4-[2-(2,5-dioxo-pyrrolidin-1-yl)-ethoxy]-3-methoxy-benzyl}-amino)-3-(4-trifluoromethyl-phenyl)-propionic acid], the negative logarithm of the IC50 (pIC50) – broadly, the negative decadic logarithm of the IC50, by convention in mol/L – was 6.29.
In the case of `Cc1cc(CN(CC2CCCCC2)C(CC(=O)O)c2ccc(Cl)c(F)c2)ccc1OCCN1C(=O)CCC1=O` (centres unmarked) [Example 78, 3-(4-Chloro-3-fluoro-phenyl)-3-(cyclohexylmethyl-{4-[2-(2,5-dioxo-pyrrolidin-1-yl)-ethoxy]-3-methyl-benzyl}-amino)-propionic acid], the negative-log IC50 (pIC50) was 7.14.
Next, `CCCCN(Cc1ccc(OCCN2C(=O)CCC2=O)c(CC)c1)C(CC(=O)O)c1ccc(Cl)cc1` (centres unmarked) [Example 87, 3-(Butyl-{4-[2-(2,5-dioxo-pyrrolidin-1-yl)-ethoxy]-3-ethyl-benzyl}-amino)-3-(4-chloro-phenyl)-propionic acid]: 7.51.
The value for `COc1cc(CN(CC2CCCC2)C(CC(=O)O)c2ccc(Cl)cc2)ccc1OCCN1C(=O)CCC1=O` (centres unmarked) [Example 39, 3-(4-Chloro-phenyl)-3-(cyclopentylmethyl-{4-[2-(2,5-dioxo-pyrrolidin-1-yl)-ethoxy]-3-methoxy-benzyl}-amino)-propionic acid] was 7.15.
The value for `O=C(O)CC(c1ccc(Cl)c(Cl)c1)N(Cc1ccc(OCCN2C(=O)CCC2=O)c(Cl)c1)CC1CC1` (centres unmarked) [Example 106, 3-({3-Chloro-4-[2-(2,5-dioxo-pyrrolidin-1-yl)-ethoxy]-benzyl}-cyclopropylmethyl-amino)-3-(3,4-dichloro-phenyl)-propionic acid; hydrochloride] was 6.65.
Turning to `CCc1cc(CN(CC2CCCCC2)C(CC(=O)O)c2ccc(Cl)c(F)c2)ccc1OCCN1C(=O)CCC1=O` (centres unmarked) [Example 95, 3-(4-Chloro-3-fluoro-phenyl)-3-(cyclohexylmethyl-{4-[2-(2,5-dioxo-pyrrolidin-1-yl)-ethoxy]-3-ethyl-benzyl}-amino)-propionic acid], the negative-log IC50 (pIC50) is 6.84.
The value for `COc1cc(CN(CC2CCCC2)C(CC(=O)O)c2ccc3c(c2)CCO3)ccc1OCCN1C(=O)CCC1=O` (centres unmarked) [Example 146, 3-(Cyclopentylmethyl-{4-[2-(2,5-dioxo-pyrrolidin-1-yl)-ethoxy]-3-methoxy-benzyl}-amino)-3-(2,3-dihydro-benzofuran-5-yl)-propionic acid] was 7.25.
The value for `CCN(Cc1ccc(OCCn2c(=O)ccn(C)c2=O)c(OC)c1)C(CC(=O)O)c1ccc(Cl)c(Cl)c1` (centres unmarked) [Example 126, 3-(3,4-Dichloro-phenyl)-3-(ethyl-{3-methoxy-4-[2-(3-methyl-2,6-dioxo-3,6-dihydro-2H-pyrimidin-1-yl)-ethoxy]-benzyl}-amino)-propionic acid] was 6.51; that for `COc1cc(CN(CC2CC2)C(CC(=O)O)c2ccc(Cl)c(Cl)c2)ccc1SCCN1C(=O)CCC1=O` (centres unmarked) [Example 191, 3-(Cyclopropylmethyl-{4-[2-(2,5-dioxo-pyrrolidin-1-yl)-ethylsulfanyl]-3-methoxy-benzyl}-amino)-3-(3,4-dichloro-phenyl)-propionic acid] was 7.70; that for `Cc1cc(CN(CC2CCCC2)[C@@H](CC(=O)O)c2ccc(Cl)c(F)c2)ccc1OCCN1C(=O)CN(C)C1=O` [Example 32, (S)-3-(4-Chloro-3-fluoro-phenyl)-3-(cyclopentylmethyl-{3-methyl-4-[2-(3-methyl-2,5-dioxo-imidazolidin-1-yl)-ethoxy]-benzyl}-amino)-propionic acid] was 7.16.
Regarding `COc1cc(CN(CC(C)C)C(CC(=O)O)c2ccc3c(c2)CCO3)ccc1CCCN1C(=O)CCC1=O` (centres unmarked) [Example 141, 3-(2,3-Dihydro-benzofuran-5-yl)-3-({4-[3-(2,5-dioxo-pyrrolidin-1-yl)-propyl]-3-methoxy-benzyl}-isobutyl-amino)-propionic acid], the pIC50 was 7.37.
Next, `COc1cc(CN(CC2CCCCC2)C(CC(=O)O)c2ccc(Cl)c(F)c2)ccc1OCCN1C(=O)CCC1=O` (centres unmarked) [Example 44, 3-(4-Chloro-3-fluoro-phenyl)-3-(cyclohexylmethyl-{4-[2-(2,5-dioxo-pyrrolidin-1-yl)-ethoxy]-3-methoxy-benzyl}-amino)-propionic acid]: 7.37; `Cc1cc(CN(CC2CCCC2)[C@@H](CC(=O)O)c2ccc(Cl)cc2)ccc1OCCN1C(=O)CN(C)C1=O` [Example 199, (S)-3-(4-Chloro-phenyl)-3-(cyclopentylmethyl-{3-methyl-4-[2-(3-methyl-2,5-dioxo-imidazolidin-1-yl)-ethoxy]-benzyl}-amino)-propionic acid]: 6.76; `CCc1cc(CN(CC2CC2)C(CC(=O)O)c2ccc(Cl)cc2)ccc1OCCN1C(=O)CCC1=O` (centres unmarked) [Example 84, 3-(4-Chloro-phenyl)-3-(cyclopropylmethyl-{4-[2-(2,5-dioxo-pyrrolidin-1-yl)-ethoxy]-3-ethyl-benzyl}-amino)-propionic acid]: 7.35.
Take `CC(C)CN(Cc1ccc(OCCN2C(=O)CCC2=O)c(F)c1)[C@H](CC(=O)O)c1ccc(Cl)c(F)c1` [Example 22, (R)-3-(4-Chloro-3-fluoro-phenyl)-3-({4-[2-(2,5-dioxo-pyrrolidin-1-yl)-ethoxy]-3-fluoro-benzyl}-isobutyl-amino)-propionic acid; hydrochloride]: the pIC50 is 6.27.
Take `CCCN(Cc1ccc(OCCN2C(=O)CCC2=O)c(CC)c1)C(c1ccc(Cl)cc1)C1(C(=O)O)CC1` (centres unmarked) [Example 196, 1-[(4-Chloro-phenyl)-({4-[2-(2,5-dioxo-pyrrolidin-1-yl)-ethoxy]-3-ethyl-benzyl}-propyl-amino)-methyl]-cyclopropanecarboxylic acid]: the pIC50 is 6.20.
Take `CCCCN(Cc1ccc(CCCN2C(=O)CCC2=O)c(OC)c1)C(CC(=O)O)c1ccc(Cl)cc1` (centres unmarked) [Example 135, 3-(Butyl-{4-[3-(2,5-dioxo-pyrrolidin-1-yl)-propyl]-3-methoxy-benzyl}-amino)-3-(4-chloro-phenyl)-propionic acid]: the negative logarithm of the IC50 (pIC50) is 6.94.
Next, `CCCN(Cc1ccc(OCCN2C(=O)CCC2=O)c(C)c1)C(CC(=O)O)c1ccc(Cl)c(Cl)c1` (centres unmarked) [Example 79, 3-(3,4-Dichloro-phenyl)-3-({4-[2-(2,5-dioxo-pyrrolidin-1-yl)-ethoxy]-3-methyl-benzyl}-propyl-amino)-propionic acid]: 6.94; `COc1cc(CN(CC2CCCCC2)C(CC(=O)O)c2ccc3c(c2)CCO3)ccc1OCCN1C(=O)CCC1=O` (centres unmarked) [Example 148, 3-(Cyclohexylmethyl-{4-[2-(2,5-dioxo-pyrrolidin-1-yl)-ethoxy]-3-methoxy-benzyl}-amino)-3-(2,3-dihydro-benzofuran-5-yl)-propionic acid]: 7.55.
`Cc1cc(CN(CC2CC2)C(CC(=O)O)c2ccc3c(c2)CCO3)ccc1OCCn1c(=O)ccn(C)c1=O` (centres unmarked) [Example 131, 3-(Cyclopropylmethyl-{3-methyl-4-[2-(3-methyl-2,6-dioxo-3,6-dihydro-2H-pyrimidin-1-yl)-ethoxy]-benzyl}-amino)-3-(2,3-dihydro-benzofuran-5-yl)-propionic acid]: the pIC50 was 7.38.
The value for `CCc1cc(CN(CC(C)C)C(CC(=O)O)c2ccc(Cl)c(Cl)c2)ccc1OCCN1C(=O)CCC1=O` (centres unmarked) [Example 98, 3-(3,4-Dichloro-phenyl)-3-({4-[2-(2,5-dioxo-pyrrolidin-1-yl)-ethoxy]-3-ethyl-benzyl}-isobutyl-amino)-propionic acid] was 6.89.
Next, `O=C(O)C[C@H](c1ccc(Cl)cc1)N(Cc1ccc(OCCN2C(=O)CCC2=O)c(F)c1)CC1CCC1` [Example 55, (R)-3-(4-Chloro-phenyl)-3-(cyclobutylmethyl-{4-[2-(2,5-dioxo-pyrrolidin-1-yl)-ethoxy]-3-fluoro-benzyl}-amino)-propionic acid]: 6.53; `Cc1cc(CN(CC2CCCC2)C(CC(=O)O)c2ccc(Cl)c(Cl)c2)ccc1OCCN1C(=O)CCC1=O` (centres unmarked) [Example 82, 3-(Cyclopentylmethyl-{4-[2-(2,5-dioxo-pyrrolidin-1-yl)-ethoxy]-3-methyl-benzyl}-amino)-3-(3,4-dichloro-phenyl)-propionic acid]: 6.92.
For the compound `CCCCN(Cc1ccc(OCCN2C(=O)CCC2=O)c(OC)c1)C1c2ccc(Cl)cc2CC1C(=O)O` (centres unmarked) [Example 168, 1-(Butyl-{4-[2-(2,5-dioxo-pyrrolidin-1-yl)-ethoxy]-3-methoxy-benzyl}-amino)-5-chloro-indan-2-carboxylic acid], the negative logarithm of the IC50 (pIC50) was 6.63.
The value for `CCc1cc(CN(CC2CCCCC2)C(CC(=O)O)c2ccc(Cl)c(Cl)c2)ccc1OCCN1C(=O)CCC1=O` (centres unmarked) [Example 101, 3-(Cyclohexylmethyl-{4-[2-(2,5-dioxo-pyrrolidin-1-yl)-ethoxy]-3-ethyl-benzyl}-amino)-3-(3,4-dichloro-phenyl)-propionic acid] was 6.53; that for `CCCCN(Cc1ccc(OCCn2c(=O)ccn(C)c2=O)c(C)c1)C(CC(=O)O)c1ccc2c(c1)CCO2` (centres unmarked) [Example 161, 3-(Butyl-{3-methyl-4-[2-(3-methyl-2,6-dioxo-3,6-dihydro-2H-pyrimidin-1-yl)-ethoxy]-benzyl}-amino)-3-(2,3-dihydro-benzofuran-5-yl)-propionic acid] was 7.12.
The value for `O=C(O)CC(c1ccc(Cl)cc1)N(Cc1ccc(OCCN2C(=O)CCC2=O)c(F)c1)CC1CC1` (centres unmarked) [Example 51, 3-(4-Chloro-phenyl)-3-(cyclopropylmethyl-{4-[2-(2,5-dioxo-pyrrolidin-1-yl)-ethoxy]-3-fluoro-benzyl}-amino)-propionic acid] was 6.88; that for `COc1cc(CN(CC2CCCCC2)C2c3ccc(Cl)cc3CC2C(=O)O)ccc1OCCN1C(=O)CCC1=O` (centres unmarked) [Example 169, 5-Chloro-1-(cyclohexylmethyl-{4-[2-(2,5-dioxo-pyrrolidin-1-yl)-ethoxy]-3-methoxy-benzyl}-amino)-indan-2-carboxylic acid] was 6.39; that for `COc1cc(CN(CC2CC2)C(CC(=O)O)c2ccc(Cl)c(Cl)c2)ccc1OCCn1c(=O)ccn(C)c1=O` (centres unmarked) [Example 124, 3-(Cyclopropylmethyl-{3-methoxy-4-[2-(3-methyl-2,6-dioxo-3,6-dihydro-2H-pyrimidin-1-yl)-ethoxy]-benzyl}-amino)-3-(3,4-dichloro-phenyl)-propionic acid] was 7.52.

(Values after patent US9447038B2 (SANOFI, priority 2012, dated 2016).)
